In patent publication US8084457B2, “Pharmaceutically active 4,6-disubstituted aminopyrimidine derivatives as modulators of protein kinases” (Lead Discovery Center GmbH, priority 2003, dated 2011):

Tests used:
[1] = target: T1, CDK2/CyclinA (Homo sapiens, UniProt P24941); experiment: Kinase assay determining CDK2/CyclinA activity; assay type: biochemical; conditions: read-out: CDK2 (activity range)
T1 construct: purchased Proqinase
Method: Kinase Assays Determining CDK2/CyclinA and CDK5/p35 Activity:
Kinase assays were performed as described by the manufacturers recommendations (Proqinase for CDK2/CyclinA and Upsate for CDK5/p35).

[2] = target: T2, CDK9/Cyclin T1 (Homo sapiens, UniProt P50750); experiment: Kinase assay using CDK9/Cyclin T1; assay type: biochemical; conditions: read-out: CDK9 (activity range)
T2 construct: made in house; host or cells: HEK293 cells, recombinant adenovirus
Text: Cloning of CDK9 and Cyclin T1:
Both cDNA fragments were cloned by PCR into pDONR201 vectors using the gateway recombination system (Invitrogen) according to the manufacturer's recommendations. The fragments were subcloned into a gateway-adapted shuttle vector (pPM7) for production of recombinant adenovirus. All plasmids were verified by restriction digests and sequencing analysis.
Expression and Purification of CDK9/Cyclin T1 Proteins:
Expression and purification was in principle performed as described by Cotten et al. (M. Cotten et al., Nucleic acids research, 2003, 31(28), 128).
Kinase Assay Using CDK9/Cyclin T1:
Kinase assays were performed in principle as described by Cotten et al. (M. Cotten et al., Nucleic acids research, 2003, 31(28), 128).

T2 sequence (P50750 whole entry): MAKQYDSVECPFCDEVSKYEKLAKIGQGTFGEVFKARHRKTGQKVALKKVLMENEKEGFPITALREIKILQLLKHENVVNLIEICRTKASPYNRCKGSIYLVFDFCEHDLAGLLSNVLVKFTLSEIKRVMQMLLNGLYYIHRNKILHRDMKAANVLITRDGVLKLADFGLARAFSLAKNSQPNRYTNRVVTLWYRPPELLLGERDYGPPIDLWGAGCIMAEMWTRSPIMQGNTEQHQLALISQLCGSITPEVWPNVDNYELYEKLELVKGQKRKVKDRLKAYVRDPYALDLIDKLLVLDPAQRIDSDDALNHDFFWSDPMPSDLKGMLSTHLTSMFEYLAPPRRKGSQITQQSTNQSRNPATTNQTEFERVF
T2 sequence (O60563 whole entry partner): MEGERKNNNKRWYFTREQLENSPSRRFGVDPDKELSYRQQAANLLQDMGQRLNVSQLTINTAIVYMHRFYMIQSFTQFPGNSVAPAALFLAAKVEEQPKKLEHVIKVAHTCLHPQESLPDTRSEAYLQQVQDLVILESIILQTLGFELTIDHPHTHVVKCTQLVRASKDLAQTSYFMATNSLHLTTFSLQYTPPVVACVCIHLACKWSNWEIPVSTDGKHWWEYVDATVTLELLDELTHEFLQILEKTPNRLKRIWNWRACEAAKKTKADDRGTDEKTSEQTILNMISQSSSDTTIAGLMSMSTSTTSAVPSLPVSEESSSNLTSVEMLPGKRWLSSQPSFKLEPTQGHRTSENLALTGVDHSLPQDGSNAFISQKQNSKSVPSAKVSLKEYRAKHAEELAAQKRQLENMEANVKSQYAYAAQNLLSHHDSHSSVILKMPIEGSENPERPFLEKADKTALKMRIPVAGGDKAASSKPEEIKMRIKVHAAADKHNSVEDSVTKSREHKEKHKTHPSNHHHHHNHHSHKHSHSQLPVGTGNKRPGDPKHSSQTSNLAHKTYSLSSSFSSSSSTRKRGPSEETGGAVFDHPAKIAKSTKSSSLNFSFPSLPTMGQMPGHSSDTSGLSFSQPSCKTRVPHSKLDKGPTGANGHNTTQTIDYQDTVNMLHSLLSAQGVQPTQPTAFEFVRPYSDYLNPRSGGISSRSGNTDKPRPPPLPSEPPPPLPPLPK

## COc1ccccc1-c1cc(Nc2ccc(C)c(NS(C)(=O)=O)c2)ncn1 [(162)]
[1]
  IC50: 1 to 1000 nM
[2]
  IC50: 1 to 1000 nM

## COc1ccc(-c2cc(Nc3ccc(NS(=O)(=O)c4ccc(C)cc4)cc3)ncn2)cc1 [(1)]
[1]
  IC50: 1000 to 10000 nM
[2]
  IC50: 10000 to 250000 nM

## O=C(Nc1ccc(Nc2cc(-c3ccccc3OCc3ccccc3)ncn2)cc1)[C@@H]1CCCCN1 [(164)]
[1]
  IC50: 1 to 1000 nM
[2]
  IC50: 1 to 1000 nM

## COc1ccccc1-c1cc(Nc2ccc(NC(=O)[C@@H]3CCCCN3C(=O)OC(C)(C)C)cc2)ncn1 [(29)]
[1]
  IC50: 1000 to 10000 nM
[2]
  IC50: 1 to 1000 nM

## CC(C)(C)C(=O)Nc1ccc(Nc2cc(Cl)ncn2)cc1 [(72)]
[1]
  IC50: 10000 to 250000 nM

## COc1ccccc1-c1cc(Nc2ccc(NC(=O)C(C)(C)C)cc2C)ncn1 [(119)]
[1]
  IC50: 10000 to 250000 nM
[2]
  IC50: 10000 to 250000 nM

## COc1ccccc1-c1cc(Nc2ccc(NC(=O)C(c3ccccc3)C(C)C)cc2)ncn1 (stereo not shown) [(37)]
[1]
  IC50: 10000 to 250000 nM
[2]
  IC50: 1000 to 10000 nM

## COc1ccccc1-c1cc(Nc2ccc(C(=O)N[C@@H]3CCCC[C@H]3O)cc2)ncn1 (racemic) [(135)]
[1]
  IC50: 1000 to 10000 nM
[2]
  IC50: 1 to 1000 nM

## COc1ccccc1-c1cc(Nc2ccc(N)cc2C)ncn1 [(123)]
[1]
  IC50: 1000 to 10000 nM
[2]
  IC50: 1000 to 10000 nM

## COc1ccc(-c2cc(Nc3ccc(NC(=O)c4ccc(N)cc4)cc3)ncn2)c(OC)c1 [(31)]
[1]
  IC50: 1 to 1000 nM
[2]
  IC50: 1 to 1000 nM

## COc1ccccc1-c1cc(Nc2ccc(NC(=O)NC(C)(C)C)cc2)ncn1 [(113)]
[1]
  IC50: 1000 to 10000 nM
[2]
  IC50: 1 to 1000 nM

## COc1ccccc1-c1cc(Nc2ccc(NC(=O)c3ccc4ccccc4c3O)cc2)ncn1 [(139)]
[1]
  IC50: 1000 to 10000 nM
[2]
  IC50: 1 to 1000 nM

## CCCS(=O)(=O)Nc1cc(Nc2cc(-c3cccc(N)c3)ncn2)ccc1C [(116)]
[1]
  IC50: 1 to 1000 nM
[2]
  IC50: 1 to 1000 nM

## COc1ccccc1-c1cc(Nc2ccc(NC(=O)c3ccc(C(C)(C)C)cc3)cc2)ncn1 [(45)]
[1]
  IC50: 10000 to 250000 nM
[2]
  IC50: 1000 to 10000 nM

## CS(=O)(=O)Nc1cc(Nc2cc(-c3cccc(N)c3)ncn2)ccc1OCc1ccccc1 [(120)]
[1]
  IC50: 1000 to 10000 nM
[2]
  IC50: 1000 to 10000 nM

## COc1ccccc1-c1cc(Nc2ccc(NC(=O)c3ccc(N)cc3)cc2)ncn1 [(8)]
[1]
  IC50: 1000 to 10000 nM
[2]
  IC50: 1 to 1000 nM

## Nc1ccc(C(=O)Nc2ccc(Nc3cc(NCC4CCCCC4)ncn3)cc2)cc1 [(43)]
[1]
  IC50: 10000 to 250000 nM
[2]
  IC50: 1000 to 10000 nM

## Cc1ccc(Nc2cc(-c3cccc(N)c3)ncn2)cc1NS(C)(=O)=O [(12)]
[1]
  IC50: 1 to 1000 nM
[2]
  IC50: 1 to 1000 nM

## Nc1ccc(C(=O)Nc2ccc(Nc3cc(-c4cccs4)ncn3)cc2)cc1 [(77)]
[1]
  IC50: 10000 to 250000 nM
[2]
  IC50: 1000 to 10000 nM

## COc1ccccc1-c1cc(Nc2ccc(NC(=N)N)cc2)ncn1 [(53)]
[1]
  IC50: 1000 to 10000 nM
[2]
  IC50: 1000 to 10000 nM

## COc1ccccc1-c1cc(Nc2ccc(C(=O)Nc3ccc(C(C)C)cc3)cc2)ncn1 [(137)]
[1]
  IC50: 10000 to 250000 nM
[2]
  IC50: 1000 to 10000 nM

## COC(=O)CN(c1ccc(Nc2cc(-c3ccccc3OC)ncn2)cc1)S(=O)(=O)c1ccc(C)cc1 [(28)]
[1]
  IC50: 1000 to 10000 nM
[2]
  IC50: 1000 to 10000 nM

## COc1ccccc1-c1cc(Nc2ccc(NC(=O)c3ccc(N4CCN(C)CC4)cc3)cc2)ncn1 [(49)]
[1]
  IC50: 1000 to 10000 nM
[2]
  IC50: 1 to 1000 nM

## COC(=O)CN(c1ccc(Nc2cc(-c3ccc(O)cc3)ncn2)cc1)S(=O)(=O)c1ccc(C)cc1 [(27)]
[1]
  IC50: 1 to 1000 nM
[2]
  IC50: 1000 to 10000 nM

## COc1ccccc1-c1cc(N(C)c2ccc(NS(=O)(=O)c3ccc(C)cc3)cc2)ncn1 [(96)]
[1]
  IC50: 1000 to 10000 nM
[2]
  IC50: 1000 to 10000 nM

## COc1ccccc1-c1cc(Nc2ccc(NC(=O)[C@@H]3CCN3)cc2)ncn1 [(90)]
[1]
  IC50: 1000 to 10000 nM
[2]
  IC50: 1 to 1000 nM

## c1ccc(COc2ccccc2-c2cc(NCCc3ccncc3)ncn2)cc1 [(7)]
[1]
  IC50: 1000 to 10000 nM
[2]
  IC50: 1 to 1000 nM

## CC(C)(C)C(=O)Nc1ccc(Nc2cc(-c3ccccc3OCc3ccccc3)ncn2)cc1 [(85)]
[1]
  IC50: 1000 to 10000 nM
[2]
  IC50: 1 to 1000 nM

## COc1ccc(-c2cc(Nc3cccc(S(N)(=O)=O)c3)ncn2)cc1 [Compound 215]
[1]
  IC50: 1 to 1000 nM
[2]
  IC50: 1 to 1000 nM

## Nc1cccc(-c2cc(NCCc3ccncc3)ncn2)c1 [(13)]
[1]
  IC50: 1000 to 10000 nM
[2]
  IC50: 1000 to 10000 nM

## COc1ccccc1-c1cc(Nc2cccc(C(N)=O)c2)ncn1 [(115)]
[1]
  IC50: 1 to 1000 nM
[2]
  IC50: 1 to 1000 nM

## COc1ccc(-c2cc(Nc3ccc(NC(=O)c4ccc(N)cc4)cc3)ncn2)cc1 [(6)]
[1]
  IC50: 1000 to 10000 nM
[2]
  IC50: 1 to 1000 nM

## O=C(Nc1ccc(Nc2cc(-c3ccc(Oc4ccccc4)cc3)ncn2)cc1)[C@@H]1CCCCN1 [(174)]
[1]
  IC50: 1000 to 10000 nM
[2]
  IC50: 1 to 1000 nM

## Nc1ccc(C(=O)Nc2ccc(Nc3cc(-c4cccc(N)c4)ncn3)cc2)cc1 [(21)]
[1]
  IC50: 1000 to 10000 nM
[2]
  IC50: 1000 to 10000 nM

## CC(C)(C)C(=O)Nc1ccc(Nc2cc(-c3ccccc3F)ncn2)cc1 [(127)]
[1]
  IC50: 10000 to 250000 nM
[2]
  IC50: 10000 to 250000 nM

## COc1ccccc1-c1cc(Nc2ccc(NC(=O)C34CC5CC(CC(C5)C3)C4)cc2)ncn1 [(61)]
[1]
  IC50: 10000 to 250000 nM
[2]
  IC50: 1000 to 10000 nM

## COc1ccccc1-c1cc(Nc2ccc(NC(=O)c3ccc4ccccc4n3)cc2)ncn1 [(98)]
[1]
  IC50: 10000 to 250000 nM
[2]
  IC50: 1 to 1000 nM

## COc1ccccc1-c1cc(Nc2ccc(C(=O)Nc3ccccc3)cc2)ncn1 [(52)]
[1]
  IC50: 10000 to 250000 nM
[2]
  IC50: 1 to 1000 nM

## COc1ccccc1-c1cc(Nc2ccc(NC(=O)c3ccc4c(c3)OCO4)cc2)ncn1 [(130)]
[1]
  IC50: 1000 to 10000 nM
[2]
  IC50: 1 to 1000 nM

## Nc1cccc(-c2cc(Nc3ccc(S(N)(=O)=O)cc3)ncn2)c1 [(117)]
[1]
  IC50: 1 to 1000 nM
[2]
  IC50: 1000 to 10000 nM

## COc1ccccc1-c1cc(Nc2ccc(-c3nc4ccccc4[nH]3)cc2)ncn1 [(63)]
[1]
  IC50: 1 to 1000 nM
[2]
  IC50: 1 to 1000 nM

## COc1ccc(-c2cc(NCCc3ccncc3)ncn2)cc1 [(92)]
[1]
  IC50: 10000 to 250000 nM
[2]
  IC50: 10000 to 250000 nM

## COc1ccccc1-c1cc(NCCc2ccncc2)ncn1 [(93)]
[1]
  IC50: 10000 to 250000 nM
[2]
  IC50: 1000 to 10000 nM

## COc1ccc(-c2cc(Nc3ccc(C)c(NS(C)(=O)=O)c3)ncn2)cc1 [(3)]
[1]
  IC50: 1 to 1000 nM
[2]
  IC50: 1000 to 10000 nM

## Cc1ccc(Nc2cc(-c3cccc(N)c3)ncn2)cc1NS(=O)(=O)c1cccc2cccnc12 [(142)]
[1]
  IC50: 10000 to 250000 nM
[2]
  IC50: 1 to 1000 nM

## Cc1ccc(S(=O)(=O)Nc2ccc(Nc3cc(-c4cccc(/C=C/C(=O)O)c4)ncn3)cc2)cc1 [(40)]
[1]
  IC50: 10000 to 250000 nM
[2]
  IC50: 10000 to 250000 nM

## COc1ccccc1-c1cc(Nc2ccc(NC(=O)C3(NC(=O)OC(C)(C)C)CCCC3)cc2)ncn1 [(47)]
[1]
  IC50: 10000 to 250000 nM
[2]
  IC50: 1 to 1000 nM

## COc1ccccc1-c1cc(Nc2ccc(C(=O)NC3CCCCC3)cc2)ncn1 [(44)]
[1]
  IC50: 1000 to 10000 nM
[2]
  IC50: 1 to 1000 nM

## Nc1ccc(C(=O)Nc2ccc(Nc3cc(NCCO)ncn3)cc2)cc1 [(60)]
[1]
  IC50: 10000 to 250000 nM
[2]
  IC50: 1000 to 10000 nM

## CCOc1ccccc1-c1cc(Nc2ccc(NC(=O)c3ccc(N)cc3)cc2)ncn1 [(55)]
[1]
  IC50: 1000 to 10000 nM
[2]
  IC50: 1 to 1000 nM

## COc1ccccc1-c1cc(Nc2ccc(NC(=O)c3ccc4[nH]cnc4c3)cc2)ncn1 [(138)]
[1]
  IC50: 10000 to 250000 nM
[2]
  IC50: 1000 to 10000 nM

## COc1ccccc1-c1cc(Nc2ccc(NC(=O)c3c[nH]c4ccccc34)cc2)ncn1 [(133)]
[1]
  IC50: 1000 to 10000 nM
[2]
  IC50: 1 to 1000 nM

## CN1CCN(c2cc(Nc3ccc(NC(=O)C(C)(C)C)cc3)ncn2)CC1 [(78)]
[1]
  IC50: 10000 to 250000 nM

## COc1ccccc1-c1cc(Nc2ccc(NC(=O)Nc3ccc4c(c3)OCO4)cc2)ncn1 [(111)]
[1]
  IC50: 10000 to 250000 nM

## CC(C)(C)C(=O)Nc1ccc(Nc2cc(-c3cccnc3)ncn2)cc1 [(73)]
[1]
  IC50: 10000 to 250000 nM
